Data reported in paper PMC7412550 (Viruses, 2020).

How the values were obtained:
HIV-1 NL4.3 wt = conditions: for SI (selectivity index): ratio between the CC50 and the EC50; for EC50: read-out: HIV-1 wt MT EC50, HIV-1 NL4.3 wt, MT4 cells, MTT, 5 days post infection, mean and SD of three experiments
in vitro = conditions: human
HIV-1 RT RNase H = conditions: Table S2; biologic data previously reported; cited from earlier work
[1] = molecular target: HIV-1 RT-associated RDDP activity (wt RT) (Human immunodeficiency virus type 1 group M subtype B, UniProt P04585); assay: HIV-1 RNA-dependent DNA polymerase (RDDP) activity; assay type: biochemical
VSV/HIV-1GFP = assay type: cell-based
HIV-1 IN = tested on: HIV-1 IN; design: method as in ref 30 = [30]; conditions: enzymatic assay; cited from earlier work
[2] = molecular target: HIV-1 RT-associated RNase H (wt RT) (Human immunodeficiency virus type 1 group M subtype B, UniProt P04585); assay: HIV-1 DNA polymerase-independent RNase H activity, wt RT
R448A RT RNase H [3] = molecular target: T1, R448A RT RNase H (Human immunodeficiency virus type 1 group M subtype B, UniProt P04585, R1035A); assay: HIV-1 DNA polymerase-independent RNase H activity, R448A RT; conditions: RNase H function; p-value 0.5545
R557A RT RNase H [4] = molecular target: T2, R557A RT RNase H (Human immunodeficiency virus type 1 group M subtype B, UniProt P04585, R1144A); assay: HIV-1 DNA polymerase-independent RNase H activity, R557A RT; conditions: RNase H function; p-value 0.9682
MT4 cells = conditions: read-out: MT4 CC50; non-infected MT4 cells, MTT
R557A RT RNase H [5] = molecular target: T2, R557A RT RNase H; design: method as in ref 26,27 = [26]; conditions: RNase H function; cited from earlier work
R448A RT RNase H [6] = molecular target: T1, R448A RT RNase H; design: method as in ref 26,27 = [26]; conditions: RNase H function; cited from earlier work
Q475A RT RNase H = Q475A RT RNase H (Human immunodeficiency virus type 1 group M subtype B, UniProt P04585, Q1062A); assay: HIV-1 DNA polymerase-independent RNase H activity, Q475A RT; conditions: RNase H function; p-value = 0.0008

Q: Which “SI (selectivity index)” value (HIV-1 NL4.3 wt) does the source give for Cc1cn([C@H]2C[C@H](N=[N+]=[N-])[C@@H](CO)O2)c(=O)[nH]c1=O [AZT, azidothymidine] here?
A: >500

Q: And the CC50 (in vitro)?
A: > 3.7 µM

Q: Which results are given for O=C(N/N=C/c1ccccc1O)c1cc(O)c(O)c(O)c1 [Compound 13, N’-(2-hydroxy-benzylidene)-3,4,5-trihydroxybenzoylhydrazone]?
A: SI (selectivity index) (HIV-1 NL4.3 wt): 6.1; EC50 (HIV-1 NL4.3 wt): 10.1 ± 4.7 µM; IC50 (HIV-1 RT RNase H): 2.32 ± 0.75 µM; CC50 (in vitro): 61.5 ± 2.2 µM; inhibitory effect on RDDP activity at 25 μM ([1]; 25 μM): no inhibitory effect; fold less potent against RT polymerase activity than RNase H function ([1]; RDDP vs RNase H): > 20 fold; IC50 ([1]; wt RT, inhibitor and substrate added before the enzyme (competition)): 81 µM; time after infection at which activity is lost (time-of-addition) (VSV/HIV-1GFP): 6 h; activity against HIV-1 IN (HIV-1 IN): inactivity; IC50 ([2]; RNase H IC50 against wt enzyme (site-directed mutagenesis study, Figure 4), determined in parallel with mutants): 6.9 µM; IC50 ([2]; RT-associated RNase H activity IC50 (comparative inhibition, Figure 2B), inhibitor and substrate added before the enzyme (competition)): 3.6 µM

Q: Which “SI (selectivity index)” value (HIV-1 NL4.3 wt) does the source give for O=C(N/N=C/c1cc(O)c(O)cc1O)c1cc(O)c(O)c(O)c1 [Compound 21] here?
A: 6.4

Q: What about the IC50 (HIV-1 RT RNase H) of the same compound?
A: 0.62 ± 0.1 µM

Q: And the CC50 (in vitro)?
A: 31.8 ± 0.4 µM

Q: What about the time-of-addition behaviour (VSV/HIV-1GFP) of the same compound?
A: retained its potency over time

Q: What about the “activity against HIV-1 IN” value (HIV-1 IN) of the same compound?
A: inhibited

Q: With O=C1Nc2ccc(Cl)cc2[C@@](C#CC2CC2)(C(F)(F)F)O1 [EFV, efavirenz] as the compound, how does the “SI (selectivity index)” value (HIV-1 NL4.3 wt) read?
A: >6.25

Q: And the CC50 (in vitro)?
A: > 0.31 µM

Q: With Cc1ccnc2c1NC(=O)c1cccnc1N2C1CC1 [NVP, nevirapine] as the compound, how does the “SI (selectivity index)” value (HIV-1 NL4.3 wt) read?
A: >5.5

Q: What about the CC50 (in vitro) of the same compound?
A: > 3.7 µM

Q: Which CC50 (in vitro) does the source give for Cc1nnc(C(=O)NC(C)(C)c2nc(C(=O)NCc3ccc(F)cc3)c(O)c(=O)n2C)o1 [RAL, raltegravir] here?
A: > 2.25 µM

Q: And the time-of-addition behaviour (VSV/HIV-1GFP)?
A: retained its potency over time

Q: Which “SI (selectivity index)” value (HIV-1 NL4.3 wt) does the source give for CCOC(=O)C(=O)CC(=O)/C=C/c1cccn1Cc1ccccc1Cl [RDS1759] here?
A: 4.7

Q: And the EC50 (HIV-1 NL4.3 wt)?
A: 8.2 ± 0.9 µM

Q: What about the “potency of inhibition on R448A RT compared to wt RT” value (R448A RT RNase H [3]) of the same compound?
A: not significantly affected

Q: And the “potency of inhibition on R557A RT compared to wt RT” value (R557A RT RNase H [4])?
A: not significantly affected

Q: What about the CC50 (MT4 cells) of the same compound?
A: 39 ± 4.4 µM

Q: And the “activity against R557A HIV-1 RT” value (R557A RT RNase H [5])?
A: fully active

Q: What about the “activity against R448A HIV-1 RT” value (R448A RT RNase H [6]) of the same compound?
A: fully active

Q: What about the “potency of inhibition on Q475A RT compared to wt RT” value (Q475A RT RNase H) of the same compound?
A: significantly lost its potency

Q: With CC(C)c1ccc(O)c(=O)c(O)c1 [beta-thujaplicinol] as the compound, how does the “activity against R557A HIV-1 RT” value (R557A RT RNase H [5]) read?
A: fully active

Q: And the “activity against R448A HIV-1 RT” value (R448A RT RNase H [6])?
A: fully active
